Source: patent publication US10092574B2, “Inhibitors of polynucleotide repeat-associated RNA foci and uses thereof” (VALORISATION-RECHERCHE, LIMITED PARTNERSHIP, priority 2013, dated 2018)

What was measured:
[1] = test system: CUG-repeat RNA foci (mutant DMPK mRNA); assay: FISH detection and quantification of CUG-repeat RNA foci in DM1 patient myoblasts; type: cell-based, human; details: DM1 myoblasts ~1250 CTG, 7 days, 15 μM compound 15 or 5 μM compound 32, vs DMSO (FIG. 4)
Description: Human myoblasts were obtained from the Myosix institute associated with the Association Frangaise contre les Myopathies (AFM). Five primary myoblast lines were obtained as controls, and one line from a DM1 patient with a 3.8 Kb CTG triplet amplification corresponding to approximately 1250 CTG repeats. The human myoblasts are cultivated in HAM-F10 media (SIGMA N6635) with 15% FBS, 1% chick embryo extract, and 390 ng/ml of dexamethasone. One day before adding compounds, 2×10^5 cells were plated in 100 mm plates (for CUGBP1 western blot or RT-PCR alternative splicing assay) or 2×10^4 cells/well are seeded in 12-well plates containing 12 mm round glass coverslips (for FISH to detect RNA foci). […]
For fluorescent in situ hybridization (FISH), cells grown on glass coverslips were fixed in PBS containing 4% paraformaldehyde, dehydrated for 2 hours in 70% ethanol, and incubated overnight with 10 ng of probe in 2×SSC 40% formamide at 37° C. […] To quantify the CUG repeat RNA aggregates, the 3D images of the foci were first processed by maximum intensity projection with the MetaMorph™ software (Molecular Devices Inc.), resulting in a 2D image containing all the foci in each cell. […] For each treatment condition, 60 to 80 cells were analyzed and all the data points were presented, with the median value indicated. […]

luciferase-CUG200 mRNA = assay: Dose-response of nuclear export/translation of luciferase-CUG200 reporter mRNA in C2C12 myoblast cell line; type: cell-based, murine; details: for EC50: Mus musculus, read-out: EC50 (luciferase from luciferase-CUG200 mRNA)
Description: C2C12 murine myoblast cells and Phoenix retrovirus packaging cells were cultivated in DMEM supplemented with 10% FBS. Phoenix cells were transfected with the desired retroviral vector by the Calcium-Phosphate method and, 48 hours after transfection, retrovirus-containing supernatant was supplemented with polybrene and deposited on cells to infect. C2C12 Tet-Off cell lines were generated by infecting cells with the retrovirus pTet-Off IN (Clontech) and selecting for Doxycycline (Dox)-regulated clones. Cell lines expressing the LacZ-5CUG, LacZ-145CUG, LUC-5CUG or LUC-200CUG transcripts were generated by infecting C2C12 Tet-Off cells with the desired reporter construct in the pRevTRE plasmid (Clontech) and selecting for stable clones with inducible expression. The 3′UTR of human DMPK containing 5 CTG repeats or 200 CTG repeats was cloned downstream of the luciferase or beta-galactosidase open reading frames. The C2C12 cell line(s) are cultivated in media containing 1 ng/ml Dox to repress transcription of the reporter constructs.
The two compounds identified by the screening assay described above, which were named compound 15 and 32, have the structure depicted in FIG. 3. Compound 15 has a para-sulfonamide structure, and compound 32 is a benzyl methylthiophene amide. […] The dose-response effect of candidate drugs 15 and 32 on the nuclear export of luciferase-CUG200 mRNA was assessed in the C2C12 myoblast cell line. The amount of CUG repeat RNA that get exported and properly translated into luciferase in response to treatment with varying concentrations of target drugs was measured in order to determine the dose-response curves.

Structure (SMILES)	decrease in RNA foci formation (surface occupied by RNA foci in the nucleus) [1]	concentration at which plateau / peak of maximal effect was reached (luciferase-CUG200 mRNA) [µM]	EC50 (luciferase-CUG200 mRNA) [µM]
CCCN(CCC)S(=O)(=O)c1ccc(NS(=O)(=O)Cc2ccccc2)cc1 [Compound 15]	more than two-fold decrease	15	6.8
CCCc1c(C(=O)N(Cc2ccccc2)Cc2cccs2)cnn1-c1ccccc1 [Compound 32]	more than two-fold decrease	5	2.5
